# Laboratory results as given in EP3501540A1, “MITOCHONDRIAL TRIFUNCTIONAL PROTEIN (MTP) INHIBITORS FOR USE IN THE TREATMENT OF HIGH MITOCHONDRIAL RESPIRATION (OX+) CANCERS” (UNIVERSITE DE BORDEAUX, priority 2017, dated 2019).
# Tests used:
# A549 (OX+) cells [1] = experiment: Sulphorodamine B viability assay; format: cell-based, human; details: A549 (OX+) cells in vitro
# Protocol: A549_LUC and H460_LUC, human lung cancer cells, were stably transfected with luciferase (pRRLsin-MND-Luc-WPRE). […] Also, they were tested as luciferase positive using direct application of 2 mL of a 150 mg/ml solution of luciferine (Firefly Luciferin, Caliper Lifescience Corp, USA), followed by immediate bioluminescent imaging using the photonIMAGER™ optima system.
# (§1) Briefly, cells were seeded in 96-well plates and medium was changed after 24 h, then Test Reagent was added on top of the cell wells and incubated for up to 72h. The viability assay was performed using Sulforhodamine B colorimetric assay for viability assay following the protocol described by Vanicha Vichai & Kanyawim Kirtikara.
# H460 cells [2] = experiment: Sensitivity to chemotherapeutic drugs; format: cell-based, human; details: H460 cells compared with A549 cells; data not shown
# HADHA = HADHA expression in cells; format: cell-based, human; details: A549 cells; LiCl 20 mM
# Protocol: Cells pellet were lysed in a buffer containing RIPA IX (Sigma-Aldrich) and protease inhibitors cocktail (chymostatin, leupeptin, antipain, pepstatin A - Sigma-Aldrich). Protein lysates were placed on ice for 15 min, vortexed and cleared by centrifugation at 12,000 × g for 15 min at 4 °C. The supernatants were retrieved and frozen at -80 °C until use. Protein concentration was performed using the Pierce™ BCA Protein Assay Kit.
# Samples (20ug) were dissolved in Laemmli buffer (Bio-Rad) containing 2% mercaptoethanol by incubation for 15 min at 65°C and separated on a 4-15% SDS-polyacrylamide gradient TGX STAIN FREE mini-gel (Biorad). The gels are activated by UV with chemidoc (Biorad). Proteins were transferred electrophoretically to 0.45 µm of nitrocellulose membranes for 7 min at 2.5 Amp in Transfert buffer with Trans-Blot Turbo (biorad). Membranes were blocked 1h in odyssey buffer (eurobio) and incubated overnight in a mixture of antibodies diluted in odyssey buffer. After three washes with PBS-0.05% Tween 20, the membranes were incubated for 1 h with second antibody (LYCOR) diluted in odyssey buffer. This secondary antibody was detected by fluorescence with odyssey. Proteins were detected using specific antibodies (abcam) and total protein was used as the loading control. Primary antibodies (abcam®) against HADHA, VLCAD, mt-ETFA, mt-ETFB, NDUFS2 and NDUFAB1.
# [3] = Mass spectrometry lipidomic analysis of blood; format: in vivo, mice; details: 20mg/kg/day, day 7
# Protocol: (§2) Extracted samples were dissolved in 100 µL CHC13; 15 µL was injected for analysis. LC separation was achieved using a Bio-Bond 5U C4 column (Dikma). The LC solvents were as follows: buffer A, 95:5 H2O:methanol + 0.03% NH4OH; buffer B, 60:35:5 isopropanol:methanol:H2O + 0.03% NH4OH. A typical LC run consisted of the following for 70 min after injection: 0.1 mL/min 100% buffer A for 5 min, 0.4 mL/min linear gradient from 20% buffer B to 100% buffer B over 50 min, 0.5 mL/min 100% buffer B for 8 min and equilibration with 0.5 mL/min 100% buffer A for 7 min. FFA analysis was performed using a Thermo Scientific Q Exactive Plus fitted with a heated electrospray ionization source. The MS source parameters were 4 kV spray voltage, with a probe temperature of 437.5 °C and capillary temperature of 268.75 °C. Full-scan MS data was collected with a resolution of 70 k, AGC target 1 × 106, maximum (max) injection time of 100 ms and a scan range of 150-2,000 m/z. […] Extracted ion chromatograms for each FFA were generated using a m/z ± 0.01 mass window around the calculated exact mass (i.e., palmitic acid, calculated exact mass for M-H is 255.2330, and the extracted ion chromatogram was 255.22-255.24). Quantification of the FFAs was performed by measuring the area under the peak and dividing this number by the area under the peak for [^13C16]palmitate. […]
# [4] = test system: respiratory chain complex I; experiment: Complex I enzymatic activity assay (spectrophotometric); format: biochemical, human; details: A549 cells: 500 µM Trimetazidine 48H; cell homogenate: 100 µM palmitoyl-Coa, 10 min incubation
# Protocol: Enzymatic activities were measured spectrophotometrically, in homogenate of cells using the following reaction media: Complex I - 50mM potassium phosphate buffer, 100µM Decylubiquinone. The reaction was started by the addition of 100µM NADH and carried out at 37°C for 15 min in 340nm. After the stabilization of the signal was added 12,5µM Rotenone. Complex II - 25mM potassium phosphate buffer, 1mM KCN, 100µM ATP, 50µM DCPIP, 20mM succinate. The reaction was started by the addition of 100µM decylubiquinone and carried out at 37°C for 15 min in 660nm. Complex III - 100mM potassium phosphate buffer, 50µM cytochrome c, 250µM EDTA. The reaction was started by the addition of 100µM decylubiquinol and carried out at 37°C for 15 min in 550nm. After the stabilization of the signal was added 12,5µg/ml antimycin A. Complex IV - 100uM reduced cytochrome C in 50mM potassium phosphate buffer. The reaction was started by the addition of homogenate of cells and carried out at 37°C for 15 min in 550nm.
# A549 (OX+) cells [5] = experiment: Oxygen consumption by high-resolution respirometry; format: cell-based, human; details: 500µM for 48H
# Protocol: O2 consumption rates were measured polarographically using high-resolution respirometry (Oroboros Oxygraph-O2K). After the treatment period, medium was removed and cells were either suspended in DMEM in the presence of glucose or not for measurements of O2 consumption of intact cells, or in the respiration medium pH 7.2 (mannitol 0.25 M, MgCl2 10 mM, KH2PO4 10 mM, HEPES 10 mM, EDTA 0.08 mM, EGTA 1 mM and fatty acid free BSA 0.1%) for evaluation of respiratory complexes of permeabilized cells. Routine consumption, oligomycin-independent respiration (proton leak), FCCP-stimulated respiration (ETS capacity - maximum respiration) and ROX (oxygen consumption in presence of rotenone and antimicyn A) were measured in intact […] cells. All the values were corrected by ROX. The respiratory activity of ETF of digitonin 0.0015%-permeabilized lung cancer cells were performed following the addition of palmitoyl-carnitine 25 µM (ETF-linked substrate), rotenone 0.5 µM, ADP 100 µM. DatLab software (Oroboros Instruments, Innsbruck, Austria) was used for data acquisition and analysis.
# A549 cells [6] = experiment: Incorporation of [13C]-palmitate in Krebs cycle by mass spectrometry; format: cell-based, human; details: after 2 hours
# Protocol: The incorporation of palmitate in Krebs cycle was followed at the level of citrate using mass spectrometry. A549 cells grown in low glucose DMEM were washed twice with PBS and resuspended in PBS containing 2 mm [U-13C]palmitate with (10 mm) glucose.
# The cells were incubated for 2 h at 27 °C before fast filtration preparation of the samples for mass spectrometry analysis. Metabolites were analyzed by ionic-exchange chromatography coupled with tandem mass spectrometry (IC-MS/MS) using the method described by Bolten et al. Retention time on the column and multiple reaction monitoring (MRM) transition of each analyzed metabolite are known by the one skilled in the art.
# The ^13C mass isotopomer distribution of intracellular metabolites was determined from relevant isotopic clusters in the IC-MS/MS analysis, according to Kiefer et al. ^13C mass isotopomer distribution measurements were performed using a triple quadrupole mass spectrometer (4000Qtrap, Applied Biosystems). To obtain ^13C-labeling patterns (^13C isotopologues), isotopic clusters were corrected for the natural abundance of isotopes other than 13C, using the in-house software IsoCor (available at MetaSys).
# A549 cells [7] = experiment: ATP measurement (CellTiter-Glo); format: cell-based, human; details: 500µM for 48H
# Protocol: The ATP content was performed using the The CellTiter-Glo® Luminescent Cell Viability Assay (Promega) folowing manufacturer's instructions. Luminescence was read on a spectramax M4 Multi-Mode Microplate Reader (Molecular Devices) and values were calculated based on an ATP standard curve. The assay was normalized to cell number.
# H460 (OX-) cells = experiment: Sulphorodamine B viability assay; format: cell-based, human; details: H460 (OX-) cells in vitro
# Protocol: A549_LUC and H460_LUC, human lung cancer cells, were stably transfected with luciferase (pRRLsin-MND-Luc-WPRE). The cells were maintained in DMEM medium (Gibco) 11885-084 and 11965-092 respectively, supplemented with 10% fetal bovine serum (FBS), pH 7.4 at 37°C in a humidified incubation chamber with 5% CO2. Cells were sub-cultured every 2 days and used on experiments when they reached 85% confluency. Also, they were tested as luciferase positive using direct application of 2 mL of a 150 mg/ml solution of luciferine (Firefly Luciferin, Caliper Lifescience Corp, USA), followed by immediate bioluminescent imaging using the photonIMAGER™ optima system.
# as §1
# A549 (OX+) cells [8] = experiment: NAD/NADH determination; format: cell-based, human; details: 500µM for 48H
# Protocol: The NAD/NADH was measure using the NAD/NADH Colorimetric assay Kit (abcam), according to the manufacturer's instructions. At 25°C absorbance was measured at 450 nm and the value used to calculate the ratio. The assay was normalized to cell number.
# A549 cells [9] = experiment: Mass spectrometry lipidomic analysis of cells; format: cell-based, human; details: inside A549 cells
# Protocol: as §2
# H460 cells [10] = experiment: Mass spectrometry lipidomic analysis of cells; format: cell-based, human; details: 48 hours
# Protocol: as §2
# [11] = test system: A549 cells expressing luciferase; experiment: Orthotopic mouse model of human lung OX+ adenocarcinoma, bioluminescence imaging; format: in vivo, mice; details: luminescence imaging at day 3 and day 18; Trimetazidine 20mg/kg/day
# Description: (§3) All procedures using animals were approved by the Animal Care and Use Ethics Committee of the University of Bordeaux. The NOD/LtSz-scid/IL-2Rychain^null (NSG) mice were produced and housed in the University Bordeaux Segalen animal facility, according to the rules and regulations governed and enforced by the Institutional Animal Care and Use Committee. The animal facility institutional agreement number is A33063916. Animals were included in protocols between 6 and 8 weeks old. Mice were monitored weekly for body weights and were also examined for aspect and behavior during the time-course of the experiments. No changes were noticed except otherwise indicated.
# (§4) The orthotopic mouse models of OX+ or OX- human LUAD were obtained by using luciferase expressing clones of A549 or H460 lung adenocarcinoma cell lines, respectively. Groups of 5 mice were anesthetized with isoflurane and 1 × 10^6 cells in a volume of 100µl were injected in the lung of 8-weeks NGS mice and imaged 20 min after injection. Bioluminescence imaging (BLI) was performed on a Bioimager following intraperitonal injection of 150 mg/kg of D-Luciferin (Interchim, Montluçon, France). After 10 min, mice were anesthetized by isoflurane and placed into a photon bioimager (BIOSPACE LAB, Paris, France) for about 20 min to acquire luminescence images. Signals were quantified with the M3Vision software (BIOSPACE LAB). […]
# [12] = test system: human lung OX- H460 adenocarcinoma; experiment: Orthotopic mouse model of human lung OX- adenocarcinoma; format: in vivo, mice; details: 20 mg/kg daily
# Description: as §3, §4
# Complex I subunits = experiment: Quantitative proteome analysis of complex I subunits; format: cell-based, human; details: A549 cells
compound,measurement,setting,value
"COc1ccccc1OCC(O)CN1CCN(CC(=O)Nc2c(C)cccc2C)CC1 (racemic) [Ranolazine, (±)-N-(2,6-dimethylphenyl)-4-[2-hydroxy-3-(2-methoxyphenoxy)-propyl]-1-piperazineacetamide]",cell viability,A549 (OX+) cells [1],dose-dependent loss
O=c1[nH]cc(F)c(=O)[nH]1 [5-fluorouracile],sensitivity to the chemotherapeutic drugs,H460 cells [2],higher sensitivity
COc1cccc2c1C(=O)c1c(O)c3c(c(O)c1C2=O)C[C@@](O)(C(=O)CO)C[C@@H]3O[C@H]1C[C@H](N)[C@H](O)[C@H](C)O1 [doxorubicin],sensitivity to the chemotherapeutic drugs,H460 cells [2],higher sensitivity
"COC(=O)c1cccc(NS(=O)(=O)c2ccc(C)cc2)c1 [MSAB, methyl 3-{[(4-methylphenyl)sulfonyl]amino}benzoate]",expression of HADHA,HADHA,opposite effect
"COc1ccc(CN2CCNCC2)c(OC)c1OC [Trimetazidine, 1-(2,3,4-trimethoxybenzyl)piperazine]",Fatty-acids accumulation in the blood,[3]; OX+ mice,accumulation
same,"level of hydroxylated fatty acids (C18-OH, C18-1OH, C18-2OH, C16OH, C14OH)",[3]; blood of OX+ mice,increased
same,cell viability,A549 (OX+) cells [1],Dose-dependent reduction
same,respiratory chain complex I activity,[4],inhibition
same,mitochondrial respiration,A549 (OX+) cells [5],inhibited
same,incorporation of [^13C]-palmitate in the Krebs cycle ([^13C]citrate isotopomers),A549 cells [6],significant reduction
same,cellular ATP content,A549 cells [7],altered
same,cell viability,H460 (OX-) cells,no effect
same,NADH redox state (NAD+/NADH ratio),A549 (OX+) cells [8],altered
same,accumulation of unprocessed fatty-acids,A549 cells [9],accumulation
same,accumulation of unprocessed fatty-acids,H460 cells [10],not
same,tumor size,[11],Reduction of tumor size
same,effect on OX- tumors,[12],no effect
same,content of 15 Complex I subunits,Complex I subunits,significant reduction
same,Complex I intermediate-associated protein 30 (CIA30; NDUFAF1),Complex I subunits; after 4 hours of treatment,completely degraded
CCCCCCCCCCCCCCCC(=O)SCCNC(=O)CCNC(=O)[C@H](O)C(C)(C)COP(=O)(O)OP(=O)(O)OC[C@H]1O[C@@H](n2cnc3c(N)ncnc32)[C@H](O)[C@@H]1OP(=O)(O)O [palmitoyl-CoA],respiratory chain complex I activity,[4],inhibition
COc1cc([C@@H]2c3cc4c(cc3[C@@H](O[C@@H]3O[C@@H]5CO[C@@H](C)O[C@H]5[C@H](O)[C@H]3O)[C@H]3COC(=O)[C@H]23)OCO4)cc(OC)c1O [etoposide],sensitivity to the chemotherapeutic drugs,H460 cells [2],higher sensitivity
lithium-chloride,expression of HADHA,HADHA,stimulated
